Experimental data published in the supplement of paper PMC5908809.

Experiments:
[1] = tested on: normal NK cells expanded with K562-aAPC; experiment: drug sensitivity score (DSS) (DSS units); higher = more sensitive; extreme values may be limits of the assay; conditions: 72 h; IL-2 2.5 ng/mL
Method: (§1)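 Drug sensitivity and resistance testing on K562-aAPC-expanded normal NK cells: 5 concentrations (10-fold steps over a 10,000-fold range), 72 h at 37 °C, viability by CellTiter-Glo normalised to DMSO and benzethonium chloride controls; DSS from the fitted curve.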

[2] = tested on: YT (IL-2 2.5 ng/mL); experiment: percent inhibition of viability; higher = more inhibition; conditions: 72 h
[3] = tested on: KHYG-1 (IL-2 2.5 ng/mL); experiment: as above; conditions: 72 h
[4] = tested on: normal primary NK cells, pool 2 (3 donors) (IL-2 2.5 ng/mL); experiment: as above; conditions: 72 h
[5] = tested on: NK-YS (IL-2 2.5 ng/mL); experiment: as above; conditions: 72 h
[6] = tested on: normal primary NK cells, pool 1 (3 donors), resting (IL-2 0 ng/mL); experiment: as above; conditions: 72 h
[7] = tested on: normal primary NK cells, pool 3 (3 donors) (IL-2 2.5 ng/mL); experiment: as above; conditions: 72 h
[8] = tested on: KAI3 (IL-2 2.5 ng/mL); experiment: as above; conditions: 72 h
[9] = tested on: NK-92 (IL-2 2.5 ng/mL); experiment: as above; conditions: 72 h
[10] = tested on: DERL-7 (IL-2 2.5 ng/mL); experiment: as above; conditions: 72 h
[11] = tested on: NKL (IL-2 2.5 ng/mL); experiment: as above; conditions: 72 h
[12] = tested on: normal primary NK cells, pool 1 (3 donors) (IL-2 2.5 ng/mL); experiment: as above; conditions: 72 h
[13] = tested on: IMC-1 (IL-2 20 ng/mL); experiment: as above; conditions: 72 h
[14] = tested on: SNK-6 (IL-2 2.5 ng/mL); experiment: as above; conditions: 72 h
[15] = tested on: YT (IL-2 2.5 ng/mL); experiment: drug sensitivity score (DSS) (DSS units); higher = more sensitive; extreme values may be limits of the assay; conditions: 72 h
[16] = tested on: KHYG-1 (IL-2 2.5 ng/mL); experiment: as above; conditions: 72 h
[17] = tested on: normal primary NK cells, pool 2 (3 donors) (IL-2 2.5 ng/mL); experiment: as above; conditions: 72 h
[18] = tested on: NK-YS (IL-2 2.5 ng/mL); experiment: as above; conditions: 72 h
[19] = tested on: normal primary NK cells, pool 1 (3 donors), resting (IL-2 0 ng/mL); experiment: as above; conditions: 72 h
[20] = tested on: normal primary NK cells, pool 3 (3 donors) (IL-2 2.5 ng/mL); experiment: as above; conditions: 72 h
[21] = tested on: KAI3 (IL-2 2.5 ng/mL); experiment: as above; conditions: 72 h
[22] = tested on: NK-92 (IL-2 2.5 ng/mL); experiment: as above; conditions: 72 h
[23] = tested on: DERL-7 (IL-2 2.5 ng/mL); experiment: as above; conditions: 72 h
[24] = tested on: NKL (IL-2 2.5 ng/mL); experiment: as above; conditions: 72 h
[25] = tested on: normal primary NK cells, pool 1 (3 donors) (IL-2 2.5 ng/mL); experiment: as above; conditions: 72 h
[26] = tested on: IMC-1 (IL-2 20 ng/mL); experiment: as above; conditions: 72 h
[27] = tested on: SNK-6 (IL-2 2.5 ng/mL); experiment: as above; conditions: 72 h
[28] = tested on: normal NK cells expanded with K562-aAPC; experiment: percent inhibition of viability; higher = more inhibition; conditions: 72 h, IL-2 2.5 ng/mL
Method: as §1

O=C(O)CC[C@H]1CC[C@@](c2cc(F)ccc2F)(S(=O)(=O)c2ccc(Cl)cc2)CC1 [MK-0752] (max concentration tested 1000 nM)
Conditions	drug sensitivity score
[1]	1.1
[15]	0
[16]	0
[17]	0
[18]	0.08
[19]	0
[20]	0
[21]	0
[22]	0
[23]	0
[24]	0
[25]	0
[26]	0
[27]	1.21

percent inhibition of viability [%]
Conditions	0.1 nM	1 nM	10 nM	100 nM	1000 nM
[2]	-5.65	-0.71	-6.38	-14.1	8.32
[3]	2.68	-1.92	2.12	-1.77	2.96
[4]	-9.74	-4.15	-0.03	-3.82	-3.17
[5]	1.77	3.33	4.23	-0.52	12.9
[6]	-1.4	-17	-8.36	-13.1	-7.22
[7]	-11.6	-7.52	0.99	-5.48	3.93
[8]	-5.58	-3.61	-11.2	-10.3	10.8
[9]	-10.8	-16	2.19	-18.6	9.52
[10]	-0.82	-1.19	-2.01	-1.84	0.38
[11]	-5.92	-6.47	1.23	0.27	-0.85
[12]	1.14	-1.74	-0.83	-10.7	3.87
[13]	-1.19	-1.62	3.7	1.88	9.87
[14]	-1.33	10	0.79	21.6	11.5
[28]	-3.97	0.91	0.33	10.8	16.2

NC1(c2ccc(-c3nc4ccn5c(=O)[nH]nc5c4cc3-c3ccccc3)cc2)CCC1 [MK-2206] (max concentration tested 1000 nM)
Conditions	drug sensitivity score
[1]	5.95
[15]	0
[16]	0.23
[17]	2.88
[18]	0.39
[19]	3.29
[20]	1.47
[21]	1.8
[22]	4.95
[23]	8.28
[24]	0
[25]	1.31
[26]	0
[27]	0.95

percent inhibition of viability [%]
Conditions	0.1 nM	1 nM	10 nM	100 nM	1000 nM
[2]	-0.31	-0.89	5.71	2.26	10.1
[3]	-0.27	8.2	6.87	6.05	14.9
[4]	-7.56	2.73	8.98	12.9	34.8
[5]	2	1.38	5.87	2.52	14.5
[6]	11.9	-0.15	13.2	11.8	43
[7]	-11.3	-6.35	-0.77	8.45	19.7
[8]	0.47	-1.02	11.1	11.8	17.4
[9]	-0.6	-11	14.7	21.1	42.8
[10]	-1.61	2.78	9.98	34.8	76
[11]	-12.3	-6.86	-5.82	11.8	4.37
[12]	-0.91	-7.29	2.37	6.7	21.3
[13]	-4.35	-1.09	-0.11	-1.78	9.7
[14]	-2.51	-8.62	3.89	0.46	24.3
[28]	-2.31	2.49	7.6	28.5	45.6

CN(Cc1cnc2nc(N)nc(N)c2n1)c1ccc(C(=O)N[C@@H](CCC(=O)O)C(=O)O)cc1 [Methotrexate] (max concentration tested 5000 nM)
Conditions	drug sensitivity score
[1]	5.62
[15]	20.5
[16]	29.8
[17]	0.89
[18]	27.5
[19]	1.25
[20]	0.89
[21]	25.6
[22]	24.3
[23]	7.89
[24]	16.1
[25]	0
[26]	26.7
[27]	27.2

percent inhibition of viability [%]
Conditions	0.5 nM	5 nM	50 nM	500 nM	5000 nM
[2]	5.17	3.44	63.8	54.4	48.9
[3]	1.68	0.21	95.2	104	99.2
[4]	-8.41	-4.79	-9.59	-5.9	-3.72
[5]	7.63	4.28	83.5	93	87.1
[6]	-7.95	-0.85	11.4	8.67	18.2
[7]	-11.3	-6.43	-11.2	-2.82	-3.84
[8]	2.61	9.06	73.1	86.4	80.6
[9]	-11.1	6.17	69.3	84	80.7
[10]	1.41	1.81	-8.11	43.7	51.8
[11]	-5.39	-6.27	40.4	61.1	58.2
[12]	-2.85	-7.99	1.44	-1.93	-0.84
[13]	-3.79	5.79	72.9	95.6	97.3
[14]	2.63	21	76.8	81.2	82.7
[28]	-3.65	-3.48	-3.07	34	31.4

Nc1ccccc1NC(=O)c1ccc(CNc2nccc(-c3cccnc3)n2)cc1 [Mocetinostat] (max concentration tested 10000 nM)
Conditions	drug sensitivity score
[1]	14.8
[15]	11.6
[16]	17.6
[17]	12.9
[18]	13.7
[19]	14.3
[20]	12.2
[21]	17.2
[22]	19.3
[23]	17
[24]	21.4
[25]	11.4
[26]	18.4
[27]	19.4

percent inhibition of viability [%]
Conditions	1 nM	10 nM	100 nM	1000 nM	10000 nM
[2]	-3.42	-2.92	3.45	48.2	104
[3]	-6.09	-6.23	-4.57	100	105
[4]	-2.61	-1	-6.41	66.8	94.1
[5]	-9.56	-10.2	-10.2	71.5	102
[6]	6.94	10	2.89	76.2	88.4
[7]	-0.12	-0.69	5.62	57.3	94.5
[8]	-5.2	1.15	22.6	77.3	104
[9]	-18.8	-10.3	8.7	99.6	105
[10]	-3.82	-7.01	-13.8	99.3	101
[11]	-8.5	-7.5	22.2	98.2	106
[12]	0.77	13.7	15.1	47	90.7
[13]	-6.53	-6.19	4.71	98.2	101
[14]	-6.1	-9.13	11.2	96.4	100
[28]	-2.73	-8.59	-12.3	81.4	100

N#CCNC(=O)c1ccc(-c2ccnc(Nc3ccc(N4CCOCC4)cc3)n2)cc1 [Momelotinib] (max concentration tested 10000 nM)
Conditions	drug sensitivity score
[1]	15.6
[15]	9.23
[16]	21.2
[17]	11.5
[18]	12.2
[19]	1.97
[20]	10.2
[21]	17.1
[22]	12.3
[23]	16
[24]	18.1
[25]	14.8
[26]	8.56
[27]	11.5

percent inhibition of viability [%]
Conditions	1 nM	10 nM	100 nM	1000 nM	10000 nM
[2]	-0.29	-0.45	5.77	38.1	86.3
[3]	-1.96	-4.26	19.9	103	102
[4]	-6.15	-4.46	2.38	54.3	91.2
[5]	-3.04	-5.27	11.4	54.4	98.9
[6]	-6.11	-14.1	3.47	15.8	14.3
[7]	0.52	-6.13	-0.97	43.2	86.9
[8]	5.39	5.27	21.2	79.2	85.8
[9]	-4.89	7.75	12.7	57.3	73.3
[10]	3.73	4.25	15.9	75.2	100
[11]	-4.28	-2.44	28.4	79.3	88
[12]	-14.4	-4.36	20.3	65.5	70.3
[13]	-3.83	-4.31	-6.56	18.6	101
[14]	23.1	10.8	3.39	52.2	96
[28]	-1.5	4.78	16.6	72	96.9
